From patent US20090169643A1, “Composition for Enhancing Immune Function” (priority 2006, published 2009)

Legend:
[1] = test system: spleen cell suspension of immunocompetent cells; assay: Metabolic activity of mouse immunocompetent cells (WST-1 formazan, 48 h culture), Test Example 1; format: cell-based, Balb/c mice
Description: Zinc was used in the form of zinc sulfate dissolved in distilled water. Spleens were aseptically harvested from ten-week-old female Balb/c mice, teased in RPMI1640 culture medium (GIBCO) supplemented with streptomycin and penicillin (SIGMA), and then passed through a #200 mesh screen to obtain spleen cell suspension of immunocompetent cells. After counting the cells in the spleen cell suspension with an automatic blood cell counter (Sysmex Corporation: type CDA-500), the suspension was adjusted to a concentration of 1×10^7 cells/ml in the above-mentioned RPMI1640 culture medium and plated in a volume of 50 μl per well into a 96-well culture plate. Concanavalin A (SIGMA), a cell-growth stimulating factor, was dissolved in the above-mentioned RPMI1640 culture medium, and 50 μl of the Concanavalin A solution was added to the cell suspension in each well to give a final concentration of 2.0 μg/ml. Additionally, zinc and nigerooligosaccharide were separately dissolved in the above-mentioned RPMI1640 culture medium. […] The formazan concentration was determined from absorbance at a measurement wavelength of 415 nm (reference wavelength of 630 nm) using a microplate reader (Corona Electric Co., Ltd.: Type MTP-32). The values in Table 1 represent absorbance at 415 nm as means±SD of triplicate wells. […]

[2] = test system: spleen cell suspension of immunocompetent cells; assay: Metabolic activity of mouse immunocompetent cells during prolonged culture (WST-1 formazan, 144 h), Test Example 2; format: cell-based, Balb/c mice; conditions: for absorbance at 415 nm (formazan, index of metabolic activity): nigerooligosaccharide 0 ng/ml, Concanavalin A 0.4 μl/ml, 144 hours, mean of triplicate to hexylicate wells
Description: In this Test Example, the effect of the combined use of nigerooligosaccharide and zinc on the metabolic activity of immunocompetent cells during prolonged culture was assessed using nigerooligosaccharide and zinc in the same manner as Test Example 1. Spleens were aseptically harvested from ten-week-old female Balb/c mice, teased in RPMI1640 culture medium (GIBCO) supplemented with streptomycin and penicillin (SIGMA), and then passed through a #200 mesh screen to obtain spleen cell suspension of immunocompetent cells. After counting the cells in the spleen cell suspension with an automatic blood cell counter (Sysmex Corporation: type CDA-500), the suspension was adjusted to a concentration of 1×10^7 cells/ml in the above-mentioned RPMI1640 culture medium and plated in a volume of 50 μl per well into a 96-well culture plate. Concanavalin A (SIGMA), a cell-growth stimulating factor, was dissolved in the above-mentioned RPMI1640 culture medium, and 50 μl of the Concanavalin A solution was added to the cell suspension in each well to give a final concentration of 0.4 μl/ml. Additionally, zinc and nigerooligosaccharide were separately dissolved in the above-mentioned RPMI1640 culture medium. 50 μl of the zinc solution was added to each well to give a final concentration of 0, 1 or 2 ng/ml, and similarly, 50 μl of the nigerooligosaccharide solution was added to each well to give a final concentration of 0 or 1000 ng/ml. Thus-prepared immunocompetent cells were cultured in an incubator with 5% CO2 at 37° C. for 144 hours. […] The formazan concentration was determined from absorbance at a measurement wavelength of 415 nm (reference wavelength of 630 nm) using a microplate reader (Corona Electric Co., Ltd.: Type MTP-32).
The values in Table 2 represent absorbance at 415 nm as means of triplicate to hexylicate wells.

[3] = test system: human peripheral mononuclear cells; assay: Metabolic activity of human peripheral mononuclear cells (WST-1 formazan, 48 h culture), Test Example 3; format: cell-based
Description: In the same manner as in Test Example 1, the synergic effect of nigerooligosaccharide and zinc on the metabolic activity of human peripheral mononuclear cells was assessed using nigerooligosaccharide and zinc. After 20 ml of blood collected from each healthy male adult was diluted 2-fold with calcium- and magnesium-free phosphate buffered saline (PBS), the diluted blood sample was overlaid onto 30 ml of a Ficoll-Paque PLUS (GE Healthcare Bio-Sciences) layer so gently as not to disturb the interface, followed by centrifugation at 400×g at 20° C. for 40 minutes. After the centrifugation, lymphocytes and monocytes present in the intermediate layer were carefully collected in a Pasteur pipette. The collected cell suspension was washed with 10-fold PBS twice. After the obtained mononuclear cells were counted with an automatic blood cell counter (Sysmex Corporation: type CDA-500), the suspension was adjusted to a concentration of 2×10^6 cells/ml in RPMI1640 culture medium supplemented with 10% fetal bovine serum, streptomycin and penicillin, and plated in a volume of 50 μl per well into a 96-well culture plate. […] The formazan concentration was determined from absorbance at a measurement wavelength of 415 nm (reference wavelength of 630 nm) using a microplate reader (Corona Electric Co., Ltd.: Type MTP-32).
The values in Table 3 represent absorbance at 415 nm as means±SD of triplicate wells. […]

## O=S(=O)([O-])[O-].[Zn+2] [zinc, zinc sulfate]
[1]; summary of Table 1, 48 hours culture
  metabolic activity of mouse immunocompetent cells (in words): hardly raised the metabolic activity
[1]; zinc 1 ng/ml, nigerooligosaccharide 0 ng/ml, Concanavalin A 2.0 μg/ml, 48 hours, mean±SD of triplicate wells
  absorbance at 415 nm (formazan, index of metabolic activity): 0.815 ± 0.013
[2]; summary of Table 2, 144 hours culture, proportion 1:1000 or 1:500
  metabolic activity of mouse immunocompetent cells during prolonged culture (in words): hardly raised the metabolic activity
[2]; zinc 1 ng/ml
  absorbance at 415 nm (formazan, index of metabolic activity): 0.793
[2]; zinc 2 ng/ml
  absorbance at 415 nm (formazan, index of metabolic activity): 0.786
[3]; summary of Table 3, proportion 1:1000
  metabolic activity of human immunocompetent cells (in words): hardly raised the metabolic activity
[3]; zinc 10 ng/ml, nigerooligosaccharide 0 μg/ml, Concanavalin A 2.0 μg/ml, 48 hours, mean±SD of triplicate wells
  absorbance at 415 nm (formazan, index of metabolic activity): 0.348 ± 0.003
